The structures appear in SMILES notation. Numbers after ± are expanded uncertainties.

For data set [1] the following is noted: Crystal; DTA.
Data set [2] can be described thus: Molar enthalpy of transition or fusion. As to conditions: Crystal; DSC.

Take `CC[C@H](C)[C@H]1O[C@]2(C=C[C@@H]1C)C[C@@H]1C[C@@H](C/C=C(\C)[C@@H](O[C@H]3C[C@H](OC)[C@@H](O[C@H]4C[C@H](OC)[C@@H](O)[C@H](C)O4)[C@H](C)O3)[C@@H](C)/C=C/C=C3\CO[C@@H]4[C@H](O)C(C)=C[C@@H](C(=O)O1)[C@]34O)O2` [Avermectin B1a]: the Normal melting temperature in data set [1] turned out to be 163.29 ± 0.61 °C. The “Molar enthalpy of transition or fusion” value in data set [2] was determined as 6.91 ± 0.153 kcal/mol.

(Values after the NIST ThermoML archive (doi:10.1016/j.jct.2016.10.022).)
